Measured values reported in patent US6013802A, “Fluorescent conjugates of metal-chelating nitrogen heterocycles” (Molecular Probes, Inc., priority 1997, dated 2000).

Assay: Fluorescent detection of Cu2+ in seawater (high salt)
Settings: 1 μM dye in seawater; zero to 10 μM added Cu2+ (CuCl2)
Experimental: The metal-ion indicators of the present invention can be used to detect low levels of target ions in the presence of very high concentrations of other mono- and divalent cations. For example, a solution of a green fluorescent phenanthroline derivative (as described in Example 1) is diluted into freshly collected, unfiltered seawater to give a dye concentration of 1 μM. Using 10 mM EGTA, pH 7.20, 100 mM KCL in 10 mM MOPS as a standard, the fluorescence emission of the indicator solution is scanned from 450 nm to 650 nm in a Perkin Elmer PE-450 fluorimeter with excitation at 488 nm.

O=C1OC2(c3ccc(O)cc3Oc3cc(O)ccc32)c2ccc(NC(=S)Nc3cc4cccnc4c4ncccc34)cc21
fluorescence emission remaining, of original emission intensity, after added Cu^2+: approximately 10%
